Test results taken from patent publication US9376420B2 (YUHAN CORPORATION, priority 2012, dated 2016).

Molecular target: T1, human LXRβ (Homo sapiens, UniProt P55055)
T1 construct: expressed in transfected cells; host or cells: HEK293 cells (ATCC CRL-1573), transient transfection with pFA-hLXRβ/GAL4 and pUAS
T1 sequence (P55055 222-460 limits assumed): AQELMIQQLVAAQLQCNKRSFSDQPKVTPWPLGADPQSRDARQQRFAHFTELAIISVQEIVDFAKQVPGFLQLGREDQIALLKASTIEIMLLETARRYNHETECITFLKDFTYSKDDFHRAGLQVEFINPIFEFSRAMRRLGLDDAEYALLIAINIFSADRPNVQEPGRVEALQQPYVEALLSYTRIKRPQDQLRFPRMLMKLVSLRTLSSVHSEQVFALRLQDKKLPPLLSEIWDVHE
Assay: Assay for Transcriptional Activity of LXRβ (GAL4-hLXRβ LBD luciferase reporter, transient transfection)
Assay type: cell-based
Details: HEK293 cells transfected with pFA-hLXRβ/GAL4 and pUAS, 24 hours; for Emax: fold value in comparison with the control (DMSO-treated group); for EC50: increase of transcriptional activity of LXRβ, average of three independent tests
In short: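 EC50 values, averaged over three independent runs, come from a four-parameter fit of 9-point half-log curves spanning 0.01–50 μM. Luciferase output was read in lysed HEK293 cells 24 h after dosing at 37 °C, following transient transfection with a GAL4-human LXRβ LBD fusion plus GAL4-responsive reporter.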

COc1ccc(-c2ccc(C3CC(C(O)(C(F)(F)F)C(F)(F)F)=NN3c3ccccc3Cl)cc2F)cn1 (stereo not shown) [Example 368, 1-(2-chloro-phenyl)-5-[3-fluoro-4-(6-methoxy-pyridin-3-yl)-phenyl]-3-[di-(trifluoromethyl)-hydroxy-methyl]-4,5-dihydro-1H-pyrazole]
Emax: 57 fold
EC50: 1920 nM

CSc1cccc(-c2ccc(C3CC(C(O)(C(F)(F)F)C(F)(F)F)=NN3c3ccc(F)cc3F)cc2)c1 (stereo not shown) [Example 369, 1-(2,4-difluoro-phenyl)-5-(3′-methylsulfanyl-biphenyl-4-yl)-3-[di-(trifluoromethyl)-hydroxy-methyl]-4,5-dihydro-1H-pyrazole]
Emax: 28 fold
EC50: 666 nM

COc1ccc(-c2ccc(C3CC(C(O)(C(F)(F)F)C(F)(F)F)=NN3c3ccc(F)cc3F)cc2)cn1 (stereo not shown) [Example 370, 1-(2,4-difluoro-phenyl)-5-(4-(6-methoxy-pyridin-3-yl)-phenyl)-3-[di-(trifluoromethyl)-hydroxy-methyl]-4,5-dihydro-1H-pyrazole]
Emax: 36 fold
EC50: 821 nM

Cc1ccccc1-c1ccc(C2CC(C(O)(C(F)(F)F)C(F)(F)F)=NN2c2ccc(F)cc2F)cc1 (stereo not shown) [Example 371, 1-(2,4-difluoro-phenyl)-5-(2′-methyl-biphenyl-4-yl)-3-[di-(trifluoromethyl)-hydroxy-methyl]-4,5-dihydro-1H-pyrazole]
Emax: 34 fold
EC50: 636 nM

OC(C1=NN(c2ccc(F)cc2F)C(c2ccc(-c3cncnc3)cc2)C1)(C(F)(F)F)C(F)(F)F (stereo not shown) [Example 372, 1-(2,4-difluoro-phenyl)-5-(4-pyrimidin-5-yl-phenyl)-3-[di-(trifluoromethyl)-hydroxy-methyl]-4,5-dihydro-1H-pyrazole]
Emax: 42 fold
EC50: 412 nM

OC(C1=NN(c2ccc(F)cc2F)C(c2ccc(-c3ccc(-n4cnnn4)cc3)cc2)C1)(C(F)(F)F)C(F)(F)F (stereo not shown) [Example 373, 1-(2,4-difluoro-phenyl)-5-(4′-tetrazol-1-yl-biphenyl-4-yl)-3-[di-(trifluoromethyl)-hydroxy-methyl]-4,5-dihydro-1H-pyrazole]
Emax: 39 fold
EC50: 551 nM

Cn1c(-c2ccc(C3CC(C(O)(C(F)(F)F)C(F)(F)F)=NN3c3ccc(F)cc3F)cc2)cc2ccccc21 (stereo not shown) [Example 374, 1-(2,4-difluoro-phenyl)-5-[4-(1-methyl-1H-indol-2-yl)-phenyl]-3-[di-(trifluoromethyl)-hydroxy-methyl]-4,5-dihydro-1H-pyrazole]
Emax: 60 fold
EC50: 678 nM

Cc1ncccc1-c1ccc(C2CC(C(O)(C(F)(F)F)C(F)(F)F)=NN2c2ccc(F)cc2F)cc1 (stereo not shown) [Example 376, 1-(2,4-difluoro-phenyl)-5-(4-(2-methyl-pyridin-3-yl)-phenyl)-3-[di-(trifluoromethyl)-hydroxy-methyl]-4,5-dihydro-1H-pyrazole]
Emax: 39 fold
EC50: 325 nM

OC(C1=NN(c2ccc(F)cc2F)C(c2ccc(-c3ccc(C(F)(F)F)nc3)cc2)C1)(C(F)(F)F)C(F)(F)F (stereo not shown) [Example 377, 1-(2,4-difluoro-phenyl)-5-[4-(6-trifluoromethyl-pyridin-3-yl)-phenyl]-3-[di-(trifluoromethyl)-hydroxy-methyl]-4,5-dihydro-1H-pyrazole]
Emax: 15 fold
EC50: 890 nM

CCOC(=O)c1cncc(-c2ccc(C3CC(C(O)(C(F)(F)F)C(F)(F)F)=NN3c3ccc(F)cc3F)cc2)c1 (stereo not shown) [Example 378]
Emax: 30 fold
EC50: 744 nM

COc1ncc(-c2ccc(C3CC(C(O)(C(F)(F)F)C(F)(F)F)=NN3c3ccc(F)cc3F)cc2)cc1C=O (stereo not shown) [Example 379, 1-(2,4-difluoro-phenyl)-5-[4-(5-formyl-6-methoxy-pyridin-3-yl)-phenyl)-3-[di-(trifluoromethyl)-hydroxy-methyl]-4,5-dihydro-1H-pyrazole]
Emax: 35 fold
EC50: 745 nM

N#Cc1ncccc1-c1ccc(C2CC(C(O)(C(F)(F)F)C(F)(F)F)=NN2c2ccc(F)cc2F)cc1 (stereo not shown) [Example 380, 5-[4-(2-cyano-pyridin-3-yl)-phenyl)-1-(2,4-difluoro-phenyl)-3-[di-(trifluoromethyl)-hydroxy-methyl]-4,5-dihydro-1H-pyrazole]
Emax: 38 fold
EC50: 450 nM

OC(C1=NN(c2ccc(F)cc2F)C(c2ccc(-c3cncc(F)c3)cc2)C1)(C(F)(F)F)C(F)(F)F (stereo not shown) [Example 381, 1-(2,4-difluoro-phenyl)-5-[4-(5-fluoro-pyridin-3-yl)-phenyl)-3-[di-(trifluoromethyl)-hydroxy-methyl]-4,5-dihydro-1H-pyrazole]
Emax: 50 fold
EC50: 448 nM

CSc1ccc(-c2ccc(C3CC(C(O)(C(F)(F)F)C(F)(F)F)=NN3c3ccc(F)cc3F)cc2)cn1 (stereo not shown) [Example 382, 1-(2,4-difluoro-phenyl)-5-[4-(6-methanesulfanyl-pyridin-3-yl)-phenyl]-3-[di-(trifluoromethyl)-hydroxy-methyl]-4,5-dihydro-1H-pyrazole]
Emax: 44 fold
EC50: 772 nM

COc1cc(C)c(-c2ccc(C3CC(C(O)(C(F)(F)F)C(F)(F)F)=NN3c3ccc(F)cc3F)cc2)cn1 (stereo not shown) [Example 383, 1-(2,4-difluoro-phenyl)-5-[4-(6-methoxy-4-methyl-pyridin-3-yl)-phenyl]-3-[di-(trifluoromethyl)-hydroxy-methyl]-4,5-dihydro-1H-pyrazole]
Emax: 49 fold
EC50: 368 nM

Cc1cc(F)ncc1-c1ccc(C2CC(C(O)(C(F)(F)F)C(F)(F)F)=NN2c2ccc(F)cc2F)cc1 (stereo not shown) [Example 384, 1-(2,4-difluoro-phenyl)-5-[4-(6-fluoro-4-methyl-pyridin-3-yl)-phenyl]-3-[di-(trifluoromethyl)-hydroxy-methyl]-4,5-dihydro-1H-pyrazole]
Emax: 46 fold
EC50: 94 nM

OC(C1=NN(c2ccc(F)cc2F)C(c2ccc(-c3ccccn3)cc2)C1)(C(F)(F)F)C(F)(F)F (stereo not shown) [Example 385, 1-(2,4-difluoro-phenyl)-5-[4-pyridin-2-yl-phenyl]-3-[di-(trifluoromethyl)-hydroxy-methyl]-4,5-dihydro-1H-pyrazole]
Emax: 60 fold
EC50: 771 nM

CN(CCO)S(=O)(=O)c1ccc(-c2ccc(C3CC(C(O)(C(F)(F)F)C(F)(F)F)=NN3c3ccc(F)cc3F)cc2)cc1 (stereo not shown) [Example 386, 1-(2,4-difluoro-phenyl)-5-{4′-[(2-hydroxy-ethyl)-methyl-sulfamoyl]-biphenyl-4-yl}-3-[di-(trifluoromethyl)-hydroxy-methyl]-4,5-dihydro-1H-pyrazole]
Emax: 35 fold
EC50: 170 nM

CS(=O)(=O)c1ccc(-c2ccc(C3CC(C(O)(C(F)(F)F)C(F)(F)F)=NN3c3ccc(F)cc3F)cc2)cc1F (stereo not shown) [Example 387, 1-(2,4-difluoro-phenyl)-5-(3′-fluoro-4′-methanesulfonyl-biphenyl-4-yl)-3-[di-(trifluoromethyl)-hydroxy-methyl]-4,5-dihydro-1H-pyrazole]
Emax: 27 fold
EC50: 47 nM

CS(=O)(=O)c1c(F)cc(-c2ccc(C3CC(C(O)(C(F)(F)F)C(F)(F)F)=NN3c3ccc(F)cc3F)cc2)cc1F (stereo not shown) [Example 388, 1-(2,4-difluoro-phenyl)-5-(3′,5′-difluoro-4′-methanesulfonyl-biphenyl-4-yl)-3-[di-(trifluoromethyl)-hydroxy-methyl]-4,5-dihydro-1H-pyrazole]
Emax: 25 fold
EC50: 60 nM
